Data as given in US10004701B2, “Methods and compositions for treating infection” (UNIVERSITY OF ROCHESTER, priority 2012, dated 2018).
Where a name gives a salt, the structure may show the parent alone. Read-outs that look alike come from different tables or passages of the source.

Assays:
Experiment in all cases: AK assay 384-well format, Prestwick library screening
E. faecium = assay type: cell-based, Enterococcus faecium; conditions: 50 μM final drug concentration; for fold induction at 50 µM: Enterococcus faecium, 3 h
[1] = tested on: S. aureus strain USA300-0114; assay type: cell-based, Staphylococcus aureus; conditions: 50 μM final drug concentration; for fold induction at 50 µM: Staphylococcus aureus, USA300, 3 h
K. pneumoniae = assay type: cell-based, Klebsiella pneumoniae; conditions: 50 μM final drug concentration; for fold induction at 50 µM: Klebsiella pneumoniae, 3 h
[2] = tested on: A. baumannii strain 98-37-09; assay type: cell-based, Acinetobacter baumannii; conditions: 50 μM final drug concentration; for fold induction at 50 µM: Acinetobacter baumannii, 983709, 3 h
P. aeruginosa = assay type: cell-based, Pseudomonas aeruginosa; conditions: 50 μM final drug concentration; for fold induction at 50 µM: Pseudomonas aeruginosa, 3 h
E. cloacae = assay type: cell-based, Enterobacter cloacae; conditions: 50 μM final drug concentration; for fold induction at 50 µM: Enterobacter cloacae, 3 h
E. coli = assay type: cell-based, Escherichia coli; conditions: 50 μM final drug concentration; for fold induction at 50 µM: Escherichia coli, 3 h
[3] = planktonic, […], read-out: AK-based Prestwick Library Screening Results, E. faecium (fold increase in extracellular AK activity)
[4] = planktonic, […], read-out: AK-based Prestwick Library Screening Results, S. aureus (fold increase in extracellular AK activity)
[5] = planktonic, […], read-out: AK-based Prestwick Library Screening Results, K. pneumoniae (fold increase in extracellular AK activity)
[6] = planktonic, […], read-out: AK-based Prestwick Library Screening Results, A. baumannii (fold increase in extracellular AK activity)
[7] = planktonic, […], read-out: AK-based Prestwick Library Screening Results, P. aeruginosa (fold increase in extracellular AK activity)
[8] = planktonic, […], read-out: AK-based Prestwick Library Screening Results, E. cloacae (fold increase in extracellular AK activity)
[9] = planktonic, […], read-out: AK-based Prestwick Library Screening Results, E. coli (fold increase in extracellular AK activity)
[10] = planktonic, cutoff for positive-scoring molecules 3-fold increase

CN(C)CCCN1c2ccccc2Sc2ccccc21 [Promazine hydrochloride]
fold induction at 50 µM (E. faecium; cutoff for positive-scoring molecules 3-fold increase, read-out: AK-based Prestwick Library Screening Results, E. faecium (fold increase in extracellular AK activity)): 1 | fold induction at 50 µM ([1]; cutoff for positive-scoring molecules 3-fold increase, read-out: AK-based Prestwick Library Screening Results, S. aureus (fold increase in extracellular AK activity)): 1.4 | fold induction at 50 µM (K. pneumoniae; cutoff for positive-scoring molecules 3-fold increase, read-out: AK-based Prestwick Library Screening Results, K. pneumoniae (fold increase in extracellular AK activity)): 0.8 | fold induction at 50 µM ([2]; cutoff for positive-scoring molecules 3-fold increase, read-out: AK-based Prestwick Library Screening Results, A. baumannii (fold increase in extracellular AK activity)): 0.9 | fold induction at 50 µM (P. aeruginosa; cutoff for positive-scoring molecules 3-fold increase, read-out: AK-based Prestwick Library Screening Results, P. aeruginosa (fold increase in extracellular AK activity)): 1.1 | fold induction at 50 µM (E. cloacae; cutoff for positive-scoring molecules 3-fold increase, read-out: AK-based Prestwick Library Screening Results, E. cloacae (fold increase in extracellular AK activity)): 1.7 | fold induction at 50 µM (E. coli; cutoff for positive-scoring molecules 3-fold increase, read-out: AK-based Prestwick Library Screening Results, E. coli (fold increase in extracellular AK activity)): 1.2

CCOC(=O)n1ccn(C)c1=S [Carbimazole]
fold induction at 50 µM (E. faecium; planktonic E. faecium, cutoff for positive-scoring molecules 3-fold increase, read-out: AK-based Prestwick Library Screening Results, E. faecium (increase in extracellular AK activity)): 0.9 | fold induction at 50 µM ([1]; planktonic S. aureus, cutoff for positive-scoring molecules 3-fold increase, read-out: AK-based Prestwick Library Screening Results, S. aureus (increase in extracellular AK activity)): 0.6 | fold induction at 50 µM (K. pneumoniae; planktonic K. pneumoniae, cutoff for positive-scoring molecules 3-fold increase, read-out: AK-based Prestwick Library Screening Results, K. pneumoniae (increase in extracellular AK activity)): 0.7 | fold induction at 50 µM ([2]; planktonic A. baumannii, cutoff for positive-scoring molecules 3-fold increase, read-out: AK-based Prestwick Library Screening Results, A. baumannii (increase in extracellular AK activity)): 0.8 | fold induction at 50 µM (P. aeruginosa; planktonic P. aeruginosa, cutoff for positive-scoring molecules 3-fold increase, read-out: AK-based Prestwick Library Screening Results, P. aeruginosa (increase in extracellular AK activity)): 0.7 | fold induction at 50 µM (E. cloacae; planktonic E. cloacae, cutoff for positive-scoring molecules 3-fold increase, read-out: AK-based Prestwick Library Screening Results, E. cloacae (increase in extracellular AK activity)): 1.2 | fold induction at 50 µM (E. coli; planktonic E. coli, cutoff for positive-scoring molecules 3-fold increase, read-out: AK-based Prestwick Library Screening Results, E. coli (increase in extracellular AK activity)): 0.8

Nc1nc2ccc(OC(F)(F)F)cc2s1 [Riluzole hydrochloride]
fold induction at 50 µM (E. faecium; 384-well format, cutoff for positive-scoring molecules 3-fold increase, read-out: AK-based Prestwick Library Screening Results, E. faecium (increase in extracellular AK activity)): 0.3 | fold induction at 50 µM ([1]; 384-well format, cutoff for positive-scoring molecules 3-fold increase, read-out: AK-based Prestwick Library Screening Results, S. aureus (increase in extracellular AK activity)): 0.2 | fold induction at 50 µM (K. pneumoniae; 384-well format, cutoff for positive-scoring molecules 3-fold increase, read-out: AK-based Prestwick Library Screening Results, K. pneumoniae (increase in extracellular AK activity)): 0.2 | fold induction at 50 µM ([2]; 384-well format, cutoff for positive-scoring molecules 3-fold increase, read-out: AK-based Prestwick Library Screening Results, A. baumannii (increase in extracellular AK activity)): 0.2 | fold induction at 50 µM (P. aeruginosa; 384-well format, cutoff for positive-scoring molecules 3-fold increase, read-out: AK-based Prestwick Library Screening Results, P. aeruginosa (increase in extracellular AK activity)): 0.2 | fold induction at 50 µM (E. cloacae; 384-well format, cutoff for positive-scoring molecules 3-fold increase, read-out: AK-based Prestwick Library Screening Results, E. cloacae (increase in extracellular AK activity)): 0.5 | fold induction at 50 µM (E. coli; 384-well format, cutoff for positive-scoring molecules 3-fold increase, read-out: AK-based Prestwick Library Screening Results, E. coli (increase in extracellular AK activity)): 0.2

C[C@@H]1CC[C@@]2(NC1)O[C@H]1C[C@H]3[C@@H]4CC=C5C[C@@H](O)CC[C@]5(C)[C@H]4CC[C@]3(C)[C@H]1[C@@H]2C [Solasodine]
fold induction at 50 µM (E. faecium; [3]): 0.9 | fold induction at 50 µM [1, 4]: 0.6 | fold induction at 50 µM (K. pneumoniae; [5]): 0.7 | fold induction at 50 µM [2, 6]: 0.7 | fold induction at 50 µM (P. aeruginosa; [7]): 1 | fold induction at 50 µM (E. cloacae; [8]): 0.9 | fold induction at 50 µM (E. coli; [9]): 1

Avermectin B1
AK-based Prestwick Library Screening Results, E. faecium (fold increase in extracellular AK activity) (E. faecium; [10]): 1.2 | AK-based Prestwick Library Screening Results, S. aureus (fold increase in extracellular AK activity) [1, 10]: 1.7 | AK-based Prestwick Library Screening Results, K. pneumoniae (fold increase in extracellular AK activity) (K. pneumoniae; [10]): 0.6 | AK-based Prestwick Library Screening Results, A. baumannii (fold increase in extracellular AK activity) [2, 10]: 0.8 | AK-based Prestwick Library Screening Results, P. aeruginosa (fold increase in extracellular AK activity) (P. aeruginosa; [10]): 0.6 | AK-based Prestwick Library Screening Results, E. cloacae (fold increase in extracellular AK activity) (E. cloacae; [10]): 0.9 | AK-based Prestwick Library Screening Results, E. coli (fold increase in extracellular AK activity) (E. coli; [10]): 0.8

CC[C@H]1[C@@H]2C[C@H]3[C@@H]4N(C)c5ccccc5[C@]45C[C@@H]([C@H]2[C@H]5O)N3[C@@H]1O [Ajmaline]
fold induction at 50 µM (E. faecium; [3]): 1.1 | fold induction at 50 µM [1, 4]: 1 | fold induction at 50 µM (K. pneumoniae; [5]): 0.9 | fold induction at 50 µM [2, 6]: 1.1 | fold induction at 50 µM (P. aeruginosa; [7]): 1.1 | fold induction at 50 µM (E. cloacae; [8]): 1.6 | fold induction at 50 µM (E. coli; [9]): 1.2

Nc1ccc(/N=N/c2ccccc2)c(N)n1 [Phenazopyridine hydrochloride]
fold induction at 50 µM (E. faecium; planktonic, cutoff for positive-scoring molecules 3-fold increase, read-out: AK-based Prestwick Library Screening Results, E. faecium (fold increase in extracellular AK activity)): 0.1 | fold induction at 50 µM ([1]; planktonic, cutoff for positive-scoring molecules 3-fold increase, read-out: AK-based Prestwick Library Screening Results, S. aureus (fold increase in extracellular AK activity)): 0.3 | fold induction at 50 µM (K. pneumoniae; planktonic, cutoff for positive-scoring molecules 3-fold increase, read-out: AK-based Prestwick Library Screening Results, K. pneumoniae (fold increase in extracellular AK activity)): 0.1 | fold induction at 50 µM ([2]; planktonic, cutoff for positive-scoring molecules 3-fold increase, read-out: AK-based Prestwick Library Screening Results, A. baumannii (fold increase in extracellular AK activity)): 0.1 | fold induction at 50 µM (P. aeruginosa; planktonic, cutoff for positive-scoring molecules 3-fold increase, read-out: AK-based Prestwick Library Screening Results, P. aeruginosa (fold increase in extracellular AK activity)): 0.1 | fold induction at 50 µM (E. cloacae; planktonic, cutoff for positive-scoring molecules 3-fold increase, read-out: AK-based Prestwick Library Screening Results, E. cloacae (fold increase in extracellular AK activity)): 1.4 | fold induction at 50 µM (E. coli; planktonic, cutoff for positive-scoring molecules 3-fold increase, read-out: AK-based Prestwick Library Screening Results, E. coli (fold increase in extracellular AK activity)): 0.1

NC(=O)c1cc[n+](CC2=C(C(=O)[O-])N3C(=O)[C@@H](NC(=O)Cc4cccs4)[C@H]3SC2)cc1 [Cefalonium]
fold induction at 50 µM (E. faecium; planktonic E. faecium, positive cutoff 3-fold increase, read-out: AK-based Prestwick library screening result, E. faecium (fold increase in extracellular AK activity)): 0.9 | fold induction at 50 µM ([1]; planktonic S. aureus, positive cutoff 3-fold increase, read-out: AK-based Prestwick library screening result, S. aureus (fold increase in extracellular AK activity)): 1.6 | fold induction at 50 µM (K. pneumoniae; planktonic K. pneumoniae, positive cutoff 3-fold increase, read-out: AK-based Prestwick library screening result, K. pneumoniae (fold increase in extracellular AK activity)): 3.8 | fold induction at 50 µM ([2]; planktonic A. baumannii, positive cutoff 3-fold increase, read-out: AK-based Prestwick library screening result, A. baumannii (fold increase in extracellular AK activity)): 1.5 | fold induction at 50 µM (P. aeruginosa; planktonic P. aeruginosa, positive cutoff 3-fold increase, read-out: AK-based Prestwick library screening result, P. aeruginosa (fold increase in extracellular AK activity)): 0.8 | fold induction at 50 µM (E. cloacae; planktonic E. cloacae, positive cutoff 3-fold increase, read-out: AK-based Prestwick library screening result, E. cloacae (fold increase in extracellular AK activity)): 1.4 | fold induction at 50 µM (E. coli; planktonic E. coli, positive cutoff 3-fold increase, read-out: AK-based Prestwick library screening result, E. coli (fold increase in extracellular AK activity)): 16.6
